Test system: pain hypersensitivity (allodynia) after chronic constriction injury to the sciatic nerve
Test: Von Frey 50% withdrawal threshold in rats with chronic constriction injury to the sciatic nerve (neuropathic pain)
Format: in vivo, Sprague-Dawley rats
Details: allodynic rats, 500 ng single intrathecal injection
Description: Eleven adult, Sprague-Dawley rats received an experimental chronic constriction injury to the sciatic nerve (Mosconi & Kruger, 1996, Pain 64:37-57). Pain hypersensitivity, indicative of neuropathic pain, increased progressively over a two week interval and was monitored using the Von Frey technique (Chaplan et al., 1994, J. Neurosci. Methods 53:55-63). Following the development of allodynia (characterized by a 50% withdrawal threshold (WD50) of ≦2.0 g), rats were administered 500 ng tricyclodecan-9-yl-xanthogenate by intrathecal catheter, the tricyclodecan-9-yl-xanthogenate was prepared in a solution of saline (0.9% NaCl) with 10% v/v dimethyl sulfoxide. Tricyclodecan-9-yl-xanthogenate is available from EMD Biosciences (a division of Calbiochem). A solution of saline (0.9% NaCl) with 10% v/v dimethyl sulfoxide was injected into control rats as a vehicle. The volume of the vehicle administered was the same as for the PLCγ inhibitor solution.
Seven allodynic rats received single intrathecal injections of a vehicle, whereas 4 rats received single injections of tricyclodecan-9-yl-xanthogenate; the mean WD50 for both groups was 1.9±0.2 g prior to injections. […] This significant reduction of pain hypersensitivity persisted for greater than 6 hours.

For S=C(S)OC1CC2CC1C1CCCC21 (centres unmarked) [tricyclodecan-9-yl-xanthogenate], the “persistence of significant reduction of pain hypersensitivity” value was “greater than 6 hours” and the “50% withdrawal threshold (WD50)” value (4 hours post-injection, pre-injection WD50 1.9±0.2 g, vehicle 4.1±0.7 g, p<0.05) was 8.8 ± 2.1 g.

Source: patent US7718382B2, “Method for identifying compounds for treatment of pain” (Universite Laval, priority 2004, dated 2010)
